Results: ChEMBL document CHEMBL5352484, “Discovery of a potent and long-acting Xenopus GLP-1-based GLP-1/glucagon/Y2 receptor triple agonist” (Eur J Med Chem, 2023)
pEC50: −log10 of the molar value. Activity calls are given as the source filed them. The calls are words filed in the database; no cut-off is given here.

Legend:
[1] = molecular target: Glucagon-like peptide 1 receptor (Homo sapiens, UniProt P43220); experiment: Agonist activity at GLP-1R (unknown origin) expressed in HEK293 cells assessed as cAMP accumulation incubated for 30 mins by HTRF method; format: functional, cell-based
Chain of Glucagon-like peptide 1 receptor (P43220 whole entry): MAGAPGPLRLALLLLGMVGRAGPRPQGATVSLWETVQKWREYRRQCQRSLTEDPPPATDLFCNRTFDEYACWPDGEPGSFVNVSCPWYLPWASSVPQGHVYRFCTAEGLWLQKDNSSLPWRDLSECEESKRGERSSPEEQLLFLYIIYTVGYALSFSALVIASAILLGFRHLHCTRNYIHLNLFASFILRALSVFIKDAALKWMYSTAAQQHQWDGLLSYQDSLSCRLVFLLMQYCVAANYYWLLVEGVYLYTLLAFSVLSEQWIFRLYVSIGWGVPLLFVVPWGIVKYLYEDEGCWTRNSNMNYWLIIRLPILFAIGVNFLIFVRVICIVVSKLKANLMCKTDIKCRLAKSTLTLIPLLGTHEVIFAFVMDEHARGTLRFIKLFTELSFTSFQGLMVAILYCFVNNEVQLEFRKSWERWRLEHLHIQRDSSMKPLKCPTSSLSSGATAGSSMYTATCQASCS

Glucagon receptor = Glucagon receptor (Homo sapiens, UniProt P47871); experiment: Agonist activity at GCGR (unknown origin) expressed in HEK293 cells assessed as cAMP accumulation incubated for 30 mins by HTRF method; format: functional, cell-based
Chain of Glucagon receptor (P47871 whole entry): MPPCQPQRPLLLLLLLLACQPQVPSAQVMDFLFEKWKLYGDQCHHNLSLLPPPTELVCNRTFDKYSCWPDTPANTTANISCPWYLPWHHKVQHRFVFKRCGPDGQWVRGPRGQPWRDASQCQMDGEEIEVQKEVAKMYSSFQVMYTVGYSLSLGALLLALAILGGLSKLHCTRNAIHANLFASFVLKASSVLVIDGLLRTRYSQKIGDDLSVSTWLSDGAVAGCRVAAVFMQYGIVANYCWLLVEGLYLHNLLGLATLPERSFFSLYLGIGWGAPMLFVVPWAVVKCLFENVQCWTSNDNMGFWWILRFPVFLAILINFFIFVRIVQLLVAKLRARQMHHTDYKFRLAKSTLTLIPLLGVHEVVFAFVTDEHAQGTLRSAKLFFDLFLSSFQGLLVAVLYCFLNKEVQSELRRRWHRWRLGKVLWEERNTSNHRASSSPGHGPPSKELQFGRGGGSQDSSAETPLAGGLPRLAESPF

Mus musculus [2] = experiment: Antiobesity activity in ICR mouse assessed as reduction in body weight at 30 nmol/kg, sc administered twice daily; format: functional; design: scale not given: the % may be the effect or the level left
Mus musculus [3] = experiment: Antiobesity activity in C57BL/6J mouse assessed as reduction in body weight at 10 nmol/kg, sc after 21 days; format: functional; design: scale not given: the % may be the effect or the level left; details: time 21 day
Mus musculus [4] = experiment: Hypoglycemic activity in ICR mouse assessed as reduction in glucose excursion at 30 nmol/kg, ip measured upto 120 mins; format: functional, organism-based
Mus musculus [5] = experiment: Hypoglycemic activity in ICR mouse at 30 nmol/kg, ip pretreated with Jant-4 for 30 mins prior to compound addition for 30 mins followed by glucose addition and measured upto 120 mins by OGTT; format: functional, organism-based; details: time <= 150.0 min
Mus musculus [6] = experiment: Hypoglycemic activity in ICR mouse at 30 nmol/kg, ip pretreated with JNJ-31020028 for 30 mins prior to compound addition for 30 mins followed by glucose addition and measured upto 120 mins by OGTT; format: functional, organism-based; details: time <= 150.0 min
Mus musculus [7] = experiment: Anti-obesity activity in C57BL/6J mouse model of high-fat diet induced obesity assessed as decrease in food intake at 30 nmol/kg, sc administered twice daily for 7 days in presence of 60 nmol/kg Lys7(C16-gammaGlu)PYY3-36; format: functional, organism-based; details: time 7.0 day
Mus musculus [8] = experiment: Anti-obesity activity in C57BL/6J mouse model of high-fat diet induced obesity assessed as decrease in body weight at 30 nmol/kg, sc administered twice daily for 7 days; format: functional; design: scale not given: the % may be the effect or the level left; details: time 7 day
Mus musculus [9] = experiment: Antiobesity activity in ICR mouse assessed as reduction in food intake at […], sc measured upto 24 hrs in presence of Lys7(C16-gammaGlu)PYY3-36; format: functional; design: scale not given: the % may be the effect or the level left
Mus musculus [10] = experiment: Reduction in saccharin consumption in ip dosed ICR mouse assessed as reduction in saccharin preference ratio pretreated for 40 mins with saccharin followed by compound addition; format: functional, organism-based
Mus musculus [11] = experiment: Anorexigenic effect in ICR mouse assessed as inhibition of food intake at 30 nmol/kg, ip pretreated with Jant-4 for 30 mins followed by compound addition for 30 mins; format: functional, organism-based
Mus musculus [12] = experiment: Hypoglycemic activity in ICR mouse assessed as decrease in blood glucose level at 30 nmol/kg, ip pretreated for 30 mins followed by glucose addition and measured upto 120 mins by OGTT; format: functional, organism-based; details: time <= 150.0 min
Mus musculus [13] = experiment: Reduction in serum AST level in C57BL/6J mouse at 30 nmol/kg, sc administered for 21 days; format: functional, organism-based; details: time 21.0 day
Mus musculus [14] = experiment: Reduction in liver TC level in C57BL/6J mouse at 30 nmol/kg, sc administered for 21 days; format: functional, organism-based; details: time 21.0 day
Mus musculus [15] = experiment: Reduction in serum ALT level in C57BL/6J mouse at 30 nmol/kg, sc administered for 21 days; format: functional, organism-based; details: time 21.0 day
Mus musculus [16] = experiment: Anti-obesity activity in C57BL/6J mouse model of high-fat diet induced obesity assessed as decrease in body weight at 30 nmol/kg, sc administered twice daily for 7 days in presence of 60 nmol/kg Lys7(C16-gammaGlu)PYY3-36; format: functional; design: scale not given: the % may be the effect or the level left; details: time 7 day
Mus musculus [17] = experiment: Antiobesity activity in ICR mouse assessed as reduction in food intake at […], sc measured upto 24 hrs; format: functional; design: scale not given: the % may be the effect or the level left
Mus musculus [18] = experiment: Reduction in liver TG level in C57BL/6J mouse at 30 nmol/kg, sc administered for 21 days; format: functional, organism-based; details: time 21.0 day
Mus musculus [19] = experiment: Anti-diabetic activity in C57BL/6J mouse model of high-fat diet induced obesity assessed as improved in glucose tolerance at 30 nmol/kg, sc administered twice daily for 7 days in presence of 60 nmol/kg Lys7(C16-gammaGlu)PYY3-36; format: functional, organism-based; details: time 7.0 day
Mus musculus [20] = experiment: Hypoglycemic activity in ICR mouse assessed as decrease in blood glucose level at 30 nmol/kg, ip pretreated for 30 mins followed by glucose addition and measured upto 120 mins in presence of 60 nmol/kg Lys7(C16-gammaGlu)PYY3-36 by OGTT; format: functional, organism-based; details: time <= 150.0 min

CC[C@H](C)[C@H](NC(=O)[C@H](Cc1ccccc1)NC(=O)[C@H](CC(=O)O)NC(=O)[C@H](CCC(N)=O)NC(=O)[C@H](C)NC(=O)[C@H](CCCNC(=N)N)NC(=O)[C@H](CCCNC(=N)N)NC(=O)[C@H](CO)NC(=O)[C@H](CC(=O)O)NC(=O)[C@H](CCCCN)NC(=O)[C@H](CCC(N)=O)NC(=O)[C@H](CCCCN)NC(=O)[C@H](CO)NC(=O)[C@H](CC(C)C)NC(=O)[C@H](CC(=O)O)NC(=O)[C@H](CO)NC(=O)[C@@H](NC(=O)[C@H](Cc1ccccc1)NC(=O)[C@@H](NC(=O)CNC(=O)[C@H](CCC(N)=O)NC(=O)[C@@H](CO)NC(=O)[C@@H](N)Cc1c[nH]cn1)[C@@H](C)O)[C@@H](C)O)C(=O)N[C@@H](CCC(=O)O)C(=O)N[C@@H](Cc1c[nH]c2ccccc12)C(=O)N[C@@H](CC(C)C)C(=O)N[C@@H](CCCCN)C(=O)N[C@@H](CC(N)=O)C(=O)NCC(=O)NCC(=O)N1CCC[C@H]1C(=O)N[C@@H](CO)C(=O)N[C@@H](CO)C(=O)NCC(=O)N[C@@H](C)C(=O)N1CCC[C@H]1C(=O)N1CCC[C@H]1C(=O)N1CCC[C@H]1C(=O)N[C@@H](CO)C(=O)N[C@@H](CS)C(N)=O
pEC50 [1]: 10.06
pEC50 (Glucagon receptor): 9.38

CCCCCCCCCCCCCCCC(=O)N[C@@H](CCC(=O)NCCCC[C@H](NC(=O)[C@H](Cc1ccc(O)cc1)NC(=O)[C@H](CCCCN)NC(=O)[C@H](CO)NC(=O)[C@@H](NC(=O)[C@H](CC(=O)O)NC(=O)[C@H](CC(N)=O)NC(=O)[C@@H](NC(=O)[C@H](Cc1ccc(O)cc1)NC(=O)[C@@H](NC(=O)CNC(=O)[C@H](CCC(N)=O)NC(=O)[C@@H](CO)NC(=O)[C@@H](N)Cc1c[nH]cn1)[C@@H](C)O)[C@@H](C)O)C(C)C)C(=O)N[C@@H](CC(=O)O)C(=O)N[C@@H](CO)C(=O)N[C@@H](CCCNC(=N)N)C(=O)N[C@@H](CCCNC(=N)N)C(=O)N[C@@H](C)C(=O)N[C@@H](CCC(N)=O)C(=O)N[C@@H](CC(=O)O)C(=O)N[C@@H](Cc1ccccc1)C(=O)N[C@H](C(=O)N[C@@H](CCC(=O)O)C(=O)N[C@@H](Cc1c[nH]c2ccccc12)C(=O)N[C@@H](CC(C)C)C(=O)N[C@@H](CCCCN)C(=O)N[C@@H](CC(N)=O)C(=O)NCC(=O)NCC(=O)N1CCC[C@H]1C(=O)N[C@@H](CO)C(=O)N[C@@H](CO)C(=O)NCC(=O)N[C@@H](C)C(=O)N1CCC[C@H]1C(=O)N1CCC[C@H]1C(=O)N1CCC[C@H]1C(=O)N[C@@H](CO)C(N)=O)[C@@H](C)CC)C(=O)O
Activity (Mus musculus [2]): 15.6%
Activity (Mus musculus [3]): 27%
Activity (Mus musculus [4]): Active
Activity (Mus musculus [5]): inactive
Activity (Mus musculus [6]): inactive
Activity (Mus musculus [7]): Active
Activity (Mus musculus [8]): 16.6%
Activity (Mus musculus [9]): 66%
Activity (Mus musculus [10]): Dose-Dependent Effect
Activity (Mus musculus [11]): inactive
Activity (Mus musculus [12]): Active
Activity (Mus musculus [13]): Active
Activity (Mus musculus [14]): Active
Activity (Mus musculus [15]): Active
Activity (Mus musculus [16]): 28.5%
Activity (Mus musculus [17]): 35%
Activity (Mus musculus [18]): Active
Activity (Mus musculus [19]): Active
Activity (Mus musculus [20]): Active

CC[C@H](C)[C@H](NC(=O)[C@H](Cc1ccccc1)NC(=O)[C@H](CC(=O)O)NC(=O)[C@H](CCC(N)=O)NC(=O)[C@H](C)NC(=O)[C@H](CCCNC(=N)N)NC(=O)[C@H](CCCNC(=N)N)NC(=O)[C@H](CO)NC(=O)[C@H](CC(=O)O)NC(=O)[C@H](CCCCN)NC(=O)[C@H](Cc1ccc(O)cc1)NC(=O)[C@H](CCCCN)NC(=O)[C@H](CO)NC(=O)[C@@H](NC(=O)[C@H](CC(=O)O)NC(=O)[C@H](CC(N)=O)NC(=O)[C@@H](NC(=O)[C@H](Cc1ccc(O)cc1)NC(=O)[C@@H](NC(=O)CNC(=O)[C@H](CCC(N)=O)NC(=O)[C@@H](CO)NC(=O)[C@@H](N)Cc1c[nH]cn1)[C@@H](C)O)[C@@H](C)O)C(C)C)C(=O)N[C@@H](CCC(=O)O)C(=O)N[C@@H](Cc1c[nH]c2ccccc12)C(=O)N[C@@H](CC(C)C)C(=O)N[C@@H](CCCCN)C(=O)N[C@@H](CC(N)=O)C(=O)NCC(=O)NCC(=O)N1CCC[C@H]1C(=O)N[C@@H](CO)C(=O)N[C@@H](CO)C(=O)NCC(=O)N[C@@H](C)C(=O)N1CCC[C@H]1C(=O)N1CCC[C@H]1C(=O)N1CCC[C@H]1C(=O)N[C@@H](CO)C(=O)N[C@@H](CS)C(N)=O
pEC50 [1]: 10.32
pEC50 (Glucagon receptor): 9.72
